The results in this text go back to US6350782B1, “Use of basic amino acids derivatives for lowering ceramide levels” (Sigma-Tau Industrie Farmaceutiche Riunite S.p.A., priority 1995, dated 2002).

The subject of assay [1] is peripheral blood lymphocyte-associated ceramide. In words: Peripheral blood lymphocyte-associated ceramide in patients with protein catabolism and lipidic depletion from tubercular infection. In kind it is in vivo, human. Conditions: 8 g per day parenteral, two weeks. The text has this: (§1) Ceramide levels can be directly measured by isolating peripheral blood lymphocytes from the patient. Thereafter the cells are centrifuged to eliminate the supernatant, and the lipids are removed from the cell pellet. The organic phase containing the ceramide can be assayed using the “DAG kinase assay” for phosphorylating the ceramide which is then evidenced by autoradiography [Cifone, M. G. et al., J. Exp. Med., 180(4): 1547-52].
Four patients affected by protein catabolism and lipidic depletion as a consequence of tubercular infection were treated for two weeks with 8 g per day L-carnitine by parenteral route.
The peripheral blood lymphocyte-associated ceramide was determined before and after the treatment.

In assay [2] the test system is lymphocyte-associated ceramide. Nature of the assay: Lymphocyte-associated ceramide in hyperthyroidism patients treated with metimazole. It counts as in vivo, human. Conditions: 8 g per day oral, 4 weeks. The text has this: Ceramide levels can be directly measured by isolating peripheral blood lymphocytes from the patient. Thereafter the cells are centrifuged to eliminate the supernatant, and the lipids are removed from the cell pellet. The organic phase containing the ceramide can be assayed using the “DAG kinase assay” for phosphorylating the ceramide which is then evidenced by autoradiography [Cifone, M. G. et al., J. Exp. Med., 180(4): 1547-52]. Four patients affected by hyperthyroidism who had been treated with metimazole (15 mg by oral route, daily) for more than eight months, were treated for 4 weeks with 8 g per day L-carnitine by oral route. The lymphocyte-associated ceramide was determinded before and after the treatment.

Another assay relates to Ceramide in the muscles. In words: Muscle ceramide in patients with symptomatic neuro-myopathy (chronic fatigue syndrome). It counts as in vivo, human. To be noted: 3 g per day oral, two months. Here is the method:
Two patients affected by symptomatic neuro-myopathy (chronic fatigue syndrome) were treated with 3 g per clay of L-carnitine by oral route through two months. Ceramide was measured in the muscles before and after the administration.

The test system of assay [3] is Peripheral blood lymphocytes. In words: Ceramide in anti-Fas antibody stimulated peripheral blood lymphocytes (DAG kinase assay). It counts as cell-based. To be noted: for Ceramide: 30 min at 37° C., then anti-Fas antibody 30 min, Control 20, Control + anti-Fas antibody 81.6; for Effect on synthesis of ceramide in vitro: anti-Fas stimulated lymphocytes.
Excerpt: as §1
Peripheral blood lymphocytes were isolated according to the classical methodologies. The cells were incubated with L-carnitine (200 mcg/ml) or with isovaleryl L-carnitine for 30 min at 37° C., and afterwards with an anti-Fas monoclonal antibody for another 30 min. The cells were then centrifuged, eleminating the supernatant, and the cell pellet was delipidized. The organic phase (containing the ceramide) was assayed in the “DAG kinase assay” for phosphorylating ceramide which subsequently was evidenced by autoradiography.
It is known that the cells suitably stimulated (i.e. with Fas-L, inter-leukin-1, etc.) generate ceramide. An anti-Fas antibody was employed to increase the production of ceramide from a basal value (20 picomoles per 10^6 cells) to 81.6 picomoles per 10^6 cells.

For assay [4], the system named is lymphocyte-associated ceramide. In words: Lymphocyte-associated ceramide in patients with hepato-splenomegaly due to viral hepatitis of C type. In kind it is in vivo, human. To be noted: 4 g bolus intravenous. The source says: Ceramide levels can be directly measured by isolating peripheral blood lymphocytes from the patient. Thereafter the cells are centrifuged to eliminate the supernatant, and the lipids are removed from the cell pellet. The organic phase containing the ceramide can be assayed using the “DAG kinase assay” for phosphorylating the ceramide which is then evidenced by autoradiography [Cifone, M. G. et al., J. Exp. Med., 180(4): 1547-52]. Three patients with hepato-splenomegaly due to viral hepatitis of C type were treated with 4 g of L-carnitine bolus by intravenous route. The lymphocyte-associated ceramide was determined before and after 3 and 48 hours following the infusion.

Regarding `C[N+](C)(C)C[C@H](O)CC(=O)[O-]` [L-carnitine], the Ceramide post-treatment in assay [1] (Patient 1, pre-treatment 127) is on record as 59 picomoles/10^6 cells; in assay [1] (Patient 2, pre-treatment 265), 77 picomoles/10^6 cells; in assay [1] (Patient 3, pre-treatment 301), 152 picomoles/10^6 cells; in assay [1] (Patient 4, pre-treatment 78) it was 54 picomoles/10^6 cells; in assay [2] (Patient 1, pre-treatment 73), 26 picomoles/10^6 cells; in assay [2] (Patient 2, pre-treatment 45) it was 27 picomoles/10^6 cells. Further, the Ceramide post-treatment in assay [2] (Patient 3, pre-treatment 111) was 36 picomoles/10^6 cells; in assay [2] (Patient 4, pre-treatment 69) it was 18 picomoles/10^6 cells; with Ceramide in the muscles (Patient 1, pre-treatment 76) it was 28 picomoles per mg of proteins; with Ceramide in the muscles (Patient 2, pre-treatment 142), 46 picomoles per mg of proteins. The Ceramide in assay [3] (100 mcg/ml) stood at 7.3 picomoles per 10^6 cells. Further, the “Effect on synthesis of ceramide in vitro” value in assay [3] was “inhibit the synthesis of ceramide in vitro”. Moreover, the “Duration of the effect on ceramide levels” value in assay [4] was “remains at least for two days”. For the same compound, in assay [4] (after 3 hours from the infusion), the “Effect of bolus on ceramide levels” value is recorded as “inhibited the increase of ceramide levels already after 3 hours”. Moreover, the “Ceramide After 3 hrs” value was 12 picomoles/10^6 cells in assay [4] (Patient 1, pre-treatment 65); 32 picomoles/10^6 cells in assay [4] (Patient 2, pre-treatment 77); 24 picomoles/10^6 cells in assay [4] (Patient 3, pre-treatment 79). The “Ceramide After 48 hrs” value amounted to 31 picomoles/10^6 cells in assay [4] (Patient 1, pre-treatment 65); 21 picomoles/10^6 cells in assay [4] (Patient 2, pre-treatment 77); 23 picomoles/10^6 cells in assay [4] (Patient 3, pre-treatment 79).
As for `CC(C)CC(=O)O[C@H](CC(=O)[O-])C[N+](C)(C)C` [isovaleryl L-carnitine], the Ceramide in assay [3] (50 mcg/ml) turned out to be 8.6 picomoles per 10^6 cells; in assay [3] (100 mcg/ml), 7.3 picomoles per 10^6 cells. In addition, in assay [3], the “Effect on synthesis of ceramide in vitro” value is listed as “inhibit the synthesis of ceramide in vitro”.
